Structures can show the parent of a compound that is named as a salt. Where two headings read alike, the source gives them in different places.
Columns and labels:
[1] = turbidity based assay of crystal nucleation and growth in supersaturated calcium oxalate solutions; conditions: FIG. 10 and FIG. 11
Excerpt: FIG. 10 illustrates the effect of citrate on growth and nucleation of crystals in supersaturated calcium oxalate solutions as measured by turbidity at 620 nm.
FIG. 11 is an example of turbidity based assay showing crystal nucleation and growth in supersaturated calcium oxalate solutions prepared in accordance with the method of FIG. 1.
The system also includes means for preparing metastable formulations such as supersaturated solutions. In a preferred design, supersaturated media for nucleating and growing crystals are prepared by mixing two stable components to give rise to a metastable supersaturated solution. […] This supersaturated mixture may be monitored after incubation for a predetermined duration during step 115. […]
Preferably, calcium oxalate crystals are also used to seed the supersaturated calcium oxalate solution in some samples to assess their growth or the lack thereof. Absorbance at about 620 nm provides a measure of turbidity and a decrease in turbidity indicates either aggregation or crystals/precipitate or reduction in the precipitation/crystal growth of calcium oxalate crystals. It should be noted that turbidity may be measured at other wavelengths as well including wavelengths corresponding to visible light and ultraviolet light. Preferably, but not as a requirement, turbidity is measured by evaluating light scattered at an angle to the incident light. […]

[2] = high throughput screen of components for modifying calcium oxalate crystal growth (crystal imaging)
Method: Next, the seed crystals are incubated in supersaturated calcium oxalate medium. This medium may have one or more of components for testing. Nucleation and changes in a crystal property (such as crystal growth) are detected by comparing signals obtained from a sample at different times and/or after changing the medium. For example, a signal for a sample can be taken at the beginning of incubation, and then optionally at one or more times during incubation, and then at the end of incubation. The number and time for obtaining signals from or screening a sample will depend on the particular experiment and will be readily apparent to the skilled artisan. These signals or screens of samples may be photographs of birefringent spots, the size of the spots (measured in pixels), calculations based on the pixels and their distribution in a birefringence- or plain light-based image, in-situ Raman spectroscopy to monitor growth or determine the composition of one or more crystals, signals for the concentration of component(s) in the medium, and the like.
FIG. 2 illustrates one such embodiment. Sodium oxalate and calcium chloride solutions are prepared during steps 200 and 205 respectively. Following mixing during step 210 to obtain supersaturated calcium oxalate medium, also described in FIG. 1, monitoring while incubating during step 215 detects the formation of seed crystals. Next, the medium is removed during step 220 followed by addition of fresh medium containing test components during step 225. The test component(s) are preferably added to the sodium oxalate solution used to make the medium. Alternatively, they could be added in the calcium chloride solution for making the medium, or in a separate solution, or as solids, or even mixed in, or any combination thereof.
Some processing of arrays is also seen in the method illustrated in FIG. 2. Further incubation of seed crystals during step 230 and imaging during step 235 provide data about the growth and/or nucleation of crystals. The high throughput method of FIG. 2 includes estimating a nucleation and/or growth rate from a number of birefringent spots. An increase in the nucleation rate, or observing little or no crystal growth, ascribable to a component may indicate a therapeutic use for treating diseases, conditions, or disorders associated with calculi or crystal deposition (e.g., nephrolithiasis) by reducing the average size of the crystals, stones or calculi to facilitate excretion. Alternatively, a significant decrease in the nucleation rate ascribable to a component may indicate a therapeutic use for treating diseases, conditions, or disorders associated with calculi or crystal deposition (e.g., nephrolithiasis) by decreasing the rate of stone or calculi formation.
The photograph of the illuminated crystals, e.g., obtained in step 235 of FIG. 2, may be further analyzed to estimate a number of pixels corresponding to a crystal spot.
Other properties of crystals may also be obtained from the pixel measurements in step 240 of FIG. 2. The photograph of the illuminated crystals also allows an estimate of a long and a short dimension among many possible measures. These reflect the habit of the crystal spot and may be used to predict crystals that are likely to be excreted more easily. For instance, small and even shaped crystals are more likely to be excreted than spiny crystal shapes, thus permitting high throughput screening for promising therapeutic candidates.
In FIG. 7, during step 700 one or more substances of interest are identified. […] The identified substances, added in solutions of calcium chloride or sodium oxalate, are subjected to screening via a high-throughput growth inhibitor screen during step 705. Accordingly, growth of crystals in supersaturated calcium oxalate medium is observed in the presence or absence of identified substances. Such growth may be of seed crystals or may include nucleation of crystals as well as growth.

[3] = supersaturated calcium oxalate, amounts and concentrations in FIGS. 9A and 9B

Compound | overall effect on calcium oxalate crystals (number of crystals) [2, 3] | large (intermediate to large) crystals: number / size observed [2, 3] | further results
O=C(O)CC(O)(CC(=O)O)C(=O)O [sodium citrate] | – | – | turbidity of supersaturated calcium oxalate compared to supersaturated calcium oxalate by itself ([1]; 3 mM sodium citrate, turbidity at 620 nm): dramatically reduces the turbidity; formation of calcium oxalate crystals in a supersaturated calcium oxalate solution [1]: effective, although limited, in reducing the formation of calcium oxalate crystals
O=C(O)CNC(=O)c1ccccc1 [hippuric acid] | little effect | – | –
CCCCCCCCCCCCCCCCC(C(=O)O)C(O)(CC(=O)O)C(=O)O (stereo not shown) [agaric acid] | – | – | crystal habit / form of material observed [2, 3]: formation of an emulsion/suspension
O=C([O-])[C@H](O)[C@@H](O)[C@H](O[C@@H]1O[C@H](CO)[C@H](O)[C@H](O)[C@H]1O)[C@H](O)CO.O=C([O-])[C@H](O)[C@@H](O)[C@H](O[C@@H]1O[C@H](CO)[C@H](O)[C@H](O)[C@H]1O)[C@H](O)CO.[Ca+2] [lactobionic acid hemi calcium salt] | – | presence of very large crystals in some wells | –
COc1ccc2c(c1)c(CC(=O)O)c(C)n2C(=O)c1ccc(Cl)cc1 [indomethacin, reference compound] | – | reduction in the number of large crystals | small crystals: number observed [2, 3]: little change in the number of small crystals
NS(=O)(=O)c1cc(C(=O)O)c(NCc2ccco2)cc1Cl [furosemide, reference compound] | – | many more large crystals | –
CN(C)c1ccc2nc3ccc(=[N+](C)C)cc-3sc2c1 [methylene blue, reference compound] | – | reduction in large crystals | –
O=C(O)C1OC(C(=O)O)C(C(=O)O)C1C(=O)O (stereo not shown) [tetrahydrofuran-2,3,4,5-tetracarboxylic acid] | – | reduced number of intermediate to large crystals | small crystals: number observed [2, 3]: increased number of small crystals
CCCN(CCC)S(=O)(=O)c1ccc(C(=O)O)cc1 [probenicid, reference compound] | little effect | – | small crystals: number observed [2, 3]: a few more small crystals
O=C(O)[C@H](O)[C@@H](O)[C@H](O[C@@H]1O[C@H](CO)[C@H](O)[C@H](O)[C@H]1O)[C@H](O)CO [lactobionic acid] | many small and large crystals | – | –
O=C(O)C(O)c1ccccc1 (stereo not shown) [mandelic acid] | little effect | – | –
CC(=O)OC[C@H]1O[C@@](COC(C)=O)(O[C@H]2O[C@H](COC(C)=O)[C@@H](OC(C)=O)[C@H](OC(C)=O)[C@H]2OC(C)=O)[C@@H](OC(C)=O)[C@@H]1OC(C)=O [sucrose octaacetate] | increased number (countable) of crystals | – | –
O=C(O)C(O)c1ccc(Br)cc1 (stereo not shown) [4-bromomandelic acid] | – | larger sized crystals being formed | crystal habit / form of material observed [2, 3]: absence of plate like structures
atrolactic acid hemihydrate | – | – | large (intermediate to large) crystals: number / size observed [2]: reduction in large crystals
